Measured values as given in ChEMBL document CHEMBL3124761, “Synthesis and biological evaluation of N,N'-squaramides with high in vivo efficacy and low toxicity: toward a low-cost drug against Chagas disease” (J Med Chem, 2014).
Calls of active or inactive are those of the source. The rule behind the calls is not given here.

What was measured:
Mus musculus [1] = assay: Toxicity in BALB/c albino mouse infected with blood trypomastigote stage of Trypanosoma cruzi assessed as change in urea level in serum at 25 mg/kg, ip administered on day 7 to 12 post-infection measured after day 120 relative to control; assay type: organism-based; design: dose 25 mg/kg, route intraperitoneal; conditions: in vivo
Mus musculus [2] = assay: Toxicity in BALB/c albino mouse infected with blood trypomastigote stage of Trypanosoma cruzi assessed as change in creatinephophokinase-MB level in serum at 40 mg/kg, ip administered on day 7 to 12 post-infection measured after day 150 relative to control; assay type: organism-based; design: dose 40 mg/kg, route intraperitoneal; conditions: in vivo
Mus musculus [3] = assay: Toxicity in BALB/c albino mouse infected with blood trypomastigote stage of Trypanosoma cruzi assessed as change in ALT/GPT level in serum at 25 mg/kg, ip administered on day 7 to 12 post-infection measured after day 120 relative to control; assay type: organism-based; design: dose 25 mg/kg, route intraperitoneal; conditions: in vivo
Mus musculus [4] = assay: Toxicity in BALB/c albino mouse infected with blood trypomastigote stage of Trypanosoma cruzi assessed as decrease in alkaline phosphatase level in serum at 40 mg/kg, ip administered on day 7 to 12 post-infection measured after day 150 relative to control; assay type: organism-based; design: dose 40 mg/kg, route intraperitoneal; scale not given: the % may be the effect or the level left; conditions: in vivo
Mus musculus [5] = assay: Toxicity in BALB/c albino mouse infected with blood trypomastigote stage of Trypanosoma cruzi assessed as increase in total bilirubin level in serum at 25 mg/kg, ip administered on day 7 to 12 post-infection measured after day 120 relative to control; assay type: organism-based; design: dose 25 mg/kg, route intraperitoneal; conditions: in vivo
Mus musculus [6] = assay: Toxicity in BALB/c albino mouse infected with blood trypomastigote stage of Trypanosoma cruzi assessed as increase in urea level in serum at 500 mg/kg, ip; assay type: organism-based; design: dose 500 mg/kg, route intraperitoneal; conditions: in vivo
Trypanosoma cruzi [7] = assay: Antitrypanosomal activity against amastigote stage of Trypanosoma cruzi IRHOD/CO/2008/SN3 infected in African green monkey Vero cells assessed as decrease in infection rate at IC25 preincubated for 12 hrs followed by compound washout measured every 48 hrs for 10 days by Neubauer hemocytometric chamber analysis relative to control; assay type: functional
Mus musculus [8] = assay: Toxicity in BALB/c albino mouse infected with blood trypomastigote stage of Trypanosoma cruzi assessed as change in AST/GOT level in serum at 500 mg/kg, ip relative to control; assay type: organism-based; design: dose 500 mg/kg, route intraperitoneal; conditions: in vivo
Mus musculus [9] = assay: Toxicity in BALB/c albino mouse infected with blood trypomastigote stage of Trypanosoma cruzi assessed as increase in LDH level in serum at 40 mg/kg, ip administered on day 7 to 12 post-infection measured after day 150 relative to control; assay type: organism-based; design: dose 40 mg/kg, route intraperitoneal; conditions: in vivo
Mus musculus [10] = assay: Toxicity in BALB/c albino mouse infected with blood trypomastigote stage of Trypanosoma cruzi assessed as change in urea level in serum at 40 mg/kg, ip administered on day 7 to 12 post-infection measured after day 150 relative to control; assay type: organism-based; design: dose 40 mg/kg, route intraperitoneal; conditions: in vivo
Trypanosoma cruzi [11] = assay: Trypanocidal activity against metacyclic trypomastigote stage of Trypanosoma cruzi infected in BALB/c albino mouse acute chagas disease model assessed as reduction of parasite burden at 25 mg/kg, ip administered on day 7 to 12 post-infection measured on day 14 by ELISA; assay type: functional, organism-based; design: dose 25 mg/kg
Mus musculus [12] = assay: Toxicity in BALB/c albino mouse infected with blood trypomastigote stage of Trypanosoma cruzi assessed as change in ALT/GPT level in serum at 500 mg/kg, ip relative to control; assay type: organism-based; design: dose 500 mg/kg, route intraperitoneal; conditions: in vivo
Trypanosoma cruzi [13] = assay: Antitrypanosomal activity against trypomastigote stage of Trypanosoma cruzi IRHOD/CO/2008/SN3 assessed as reduction of trypomastigote number per mililiter of culture medium at IC25 preincubated for 12 hrs followed by compound washout measured every 48 hrs for 10 days by Neubauer hemocytometric chamber analysis relative to control; assay type: functional
Trypanosoma cruzi [14] = assay: Antitrypanosomal activity against epimastigote stage of Trypanosoma cruzi IRHOD/CO/2008/SN3 assessed as change in excreted alanine level at IC25 after 96 hrs by 1H NMR analysis relative to control; assay type: functional
Mus musculus [15] = assay: Toxicity in BALB/c albino mouse infected with blood trypomastigote stage of Trypanosoma cruzi assessed as decrease in alkaline phosphatase level in serum at 25 mg/kg, ip administered on day 7 to 12 post-infection measured after day 120 relative to control; assay type: organism-based; design: dose 25 mg/kg, route intraperitoneal; scale not given: the % may be the effect or the level left; conditions: in vivo
Mus musculus [16] = assay: Toxicity in BALB/c albino mouse assessed as mortality at 25 mg/kg, ip administered for 5 days; assay type: organism-based; design: dose 25 mg/kg, route intraperitoneal; conditions: in vivo, 120 h
[17] = Dissociation constant, pKa of the compound in aqueous solution; assay type: physicochemical

Which Activity (Mus musculus [1]) does the source give for `CCCCNc1c(N(C)CCCN(C)C)c(=O)c1=O` here?
Its Activity is < 10%.

What about the Activity (Mus musculus [2]) of the same compound?
Its Activity is < 10%.

And the Activity (Mus musculus [3])?
The Activity was < 10%.

What about the Activity (Mus musculus [4]) of the same compound?
The Activity was 30%.

And the Activity (Mus musculus [5])?
Its Activity is 10%.

And the Activity (Mus musculus [6])?
Its Activity is 30%.

And the “inhibition (INH)” value (Trypanosoma cruzi [7])?
The value was 67%.

And the Activity (Mus musculus [8])?
The Activity was < 10%.

What about the Activity (Mus musculus [9]) of the same compound?
Its Activity is 10%.

And the Activity (Mus musculus [10])?
The Activity was < 10%.

And the Activity (Trypanosoma cruzi [11])?
Its Activity is “Active”.

And the Activity (Mus musculus [12])?
The Activity was < 10%.

What about the “inhibition (INH)” value (Trypanosoma cruzi [13]) of the same compound?
Its value is 75%.

And the Activity (Trypanosoma cruzi [14])?
Its Activity is -18.5%.

And the Activity (Mus musculus [15])?
The Activity was 10%.

What about the Activity (Mus musculus [16]) of the same compound?
Its Activity is “Non-toxic”.

And the pKa [17]?
The pKa was 8.8.
